The source of these data is BindingDB's records for doi:10.1002/ps.3406 (2013).

This assay concerns the target Ryanodine receptor (Myzus persicae). In words: Binding affinity to Myzus persicae (green peach aphid) ryanodine receptor by radioligand binding assay.

With `CNC(=O)c1cc(Cl)cc(C)c1NC(=O)c1cc(Br)nn1-c1ncccc1Cl` [3-bromo-N-(4-chloro-2-methyl-6-(methylcarbamoyl)phenyl)-1-(3-chloropyridin-2-yl)-1H-pyrazole-5-carboxamide], the 50% inhibitory concentration (IC50) is 2 nM.

In general, IC50 refers to the concentration at which inhibition is half-maximal. A higher IC50 goes with lower potency.
